Assays:
Assay type in all cases: in vivo, BALB/c mice
[1] = tested on: anti-OVA-specific IgG1 and IgG2a subclass antibody production; assay: Evaluation test of adjuvant activity (overall conclusion from anti-OVA IgG1 and IgG2a production); conditions: compound 0.256 μmol in 5% αCD-added saline with OVA 5 μg, dorsal-subcutaneous
Description: 8-Week-old female BALB/c mice were divided into groups (N=6), and each group was primarily immunized by dorsal-subcutaneous administration of (1) ovalbumin (OVA) (5 μg) dissolved in saline as an antigen (OVA single administration group), (2) OVA 5 μg and Addavax™ (mixed with saline at 1:1) dissolved in saline (Addavax™ administration group) as positive control adjuvant, (3) OVA 5 μg and SZ137 0.256 μmol dissolved or dispersed in 5% α-cyclodextrin (hereinafter to be simply referred to as αCD)-added saline (SZ137 administration group), (4) OVA (5 μg) and SZ138 (0.256 μmol) dissolved or dispersed in 5% αCD-added saline (SZ138 administration group), (5) OVA (5 μg) and SZ142 (0.256 μmol) dissolved or dispersed in 5% αCD-added saline (SZ142 administration group), (6) OVA (5 μg) and SZ144 (0.256 μmol) dissolved or dispersed in 5% αCD-added saline (SZ144 administration group), (7) OVA (5 μg) and SZ145 (0.256 μmol) dissolved or dispersed in 5% αCD-added saline (SZ145 administration group), (8) OVA (5 μg) and SZ146 (0.256 μmol) dissolved or dispersed in 5% αCD-added saline (SZ146 administration group), (9) OVA (5 μg) and SZ147 (0.256 μmol) dissolved or dispersed in 5% αCD-added saline (SZ147 administration group), (10) OVA (5 μg) and SZ148 (0.256 μmol) dissolved or dispersed in 5% αCD-added saline (SZ148 administration group), each per mouse. Two week later, the secondary immunization was carried out by dorsal-subcutaneous administration of solutions or dispersions similar to those of the above-mentioned (1)-(10) again. […]
To a 96 well plate was added 5 μg/ml OVA at 100 µl/well, and the mixture was incubated at 4° C. overnight. After incubation, the mixture was washed three times with 200 μl of PBS-T (PBS (phosphate buffered saline)+0.05% (v/v) Tween 20) per well, and blocked with 100 μl of 5% FCS (fetal calf serum)/PBS solution per well at room temperature for 1-2 hr. Thereafter, the mixture was washed three times with PBS-T (200 μl/well), a diluted serum sample (100 l/well) or the same amount of 5% FCS/PBS solution as a control was added, and the mixture was incubated at 37° C. for 1 hr. To calculate concentration of the antibody, the standard of an anti-OVA-specific IgG1 subclass antibody diluted with 2% FCS/PBS solution was added at 100 ng/ml, 50 ng/ml, 25 ng/ml, 12.5 ng/ml, 6.25 ng/ml, 3.125 ng/ml, 1.56 ng/ml, 0.781 ng/ml, 0.391 ng/ml, 0.195 ng/ml, 0.098 ng/ml, 0 ng/ml, per 1 well. When an anti-OVA-specific IgG2a subclass antibody was measured, the standard of an anti-OVA-specific IgG2a subclass antibody was added at 50 ng/ml, 25 ng/ml, 12.5 ng/ml, 6.25 ng/ml, 3.125 ng/ml, 1.56 ng/ml, 0.781 ng/ml, 0.391 ng/ml, 0.195 ng/ml, 0.098 ng/ml, 0.049 ng/ml, 0 ng/ml, per 1 well. Thereafter, similar to the samples, the mixture was washed five times with PBS-T (200 μl/well), a diluted biotinylated anti-mouse IgG1 antibody and IgG2a antibody were added (100 μl/well), and the mixture was incubated at 37° C. for 45 min. Thereafter, the mixture was washed five times with PBS-T (200 μl/well), a diluted anti-biotin-HRP antibody was added (100 μl/well), and the mixture was incubated at 37° C. for another 30 min. Thereafter, the mixture was washed five times with PBS-T (200 μl/well), TMB substrate solution was added (100 μl/well), and the mixture was incubated at room temperature for 10-15 min. Thereafter, a reaction quenching liquid (2N sulfuric acid solution) was added (50 l/well) to discontinue a color developing reaction, and the absorbance (OD Value=450 nm) was measured by a microplate reader. A standard curve was drawn from the measured OD values, and the concentration was calculated. […]

[2] = tested on: anti-OVA-specific IgG1 subclass antibody; assay: Adjuvant activity test: anti-OVA-specific IgG1 subclass antibody in serum of OVA-immunized mice (ELISA); conditions: after primary immunization, serum 2 weeks later; OVA 5 μg + compound 0.256 μmol in 5% αCD-added saline (Addavax mixed with saline at 1:1), dorsal-subcutaneous; compared to OVA single administration group
[3] = tested on: anti-OVA-specific IgG2a subclass antibody; assay: Adjuvant activity test: anti-OVA-specific IgG2a subclass antibody in serum of OVA-immunized mice (ELISA); conditions: after primary immunization, serum 2 weeks later; OVA 5 μg + compound 0.256 μmol in 5% αCD-added saline (Addavax mixed with saline at 1:1), dorsal-subcutaneous; compared to OVA single administration group
[4] = conclusion from IgG1/IgG2a after primary immunization

| SMILES | adjuvant activity [1, 4] | anti-OVA-specific IgG1 subclass antibody production [2] | anti-OVA-specific IgG2a subclass antibody production [3] | adjuvant activity ([1]; conclusion from IgG1/IgG2a after secondary immunization) |
| --- | --- | --- | --- | --- |
| CCCCCCCCCCCCNC(=O)[C@H](CCCNC(=N)N)NC(=O)C(=O)CCCCCC.Cl [SZ177, N-[(1S)-1-(dodecylcarbamoyl)-4-guanidino-butyl]-2-oxo-octanamide] | have an adjuvant activity | tended to increase | significantly increased |  |
| CCCCCCCCCCCCCCCCCCCCCC(=O)N[C@@H](CSSC[C@H](NC(=O)CCCCCCCCCCCCCCCCCCCCC)C(=O)NCCCCCCCCCCCC)C(=O)NCCCCCCCCCCCC [SZ173, N-[(1R)-1-[[[(2R)-2-(docosanoylamino)-3-(dodecylamino)-3-oxo-propyl]disulfanyl]methyl]-2-(dodecylamino)-2-oxo-ethyl]docosanamide] | has an adjuvant activity | showed a tendency to increase | significantly increased |  |
| CCCCCCCCCCCCNC(=O)[C@H](CCCNC(=N)N)N(Cc1ccccc1)Cc1ccccc1 [SZ174, (2S)-2-(Dibenzylamino)-N-dodecyl-5-guanidino-pentanamide] | have an adjuvant activity | tended to increase | significantly increased |  |
| CCCCCCCCCCCCCCCC(=O)NCCCCCNC(=N)N [SZ175, N-(5-guanidinopentyl)hexadecanamide] | have an adjuvant activity | tended to increase | significantly increased |  |
| CCCCCCCCCCCCCCCCCCOC(=O)N[C@@H](CCCNC(=N)N)C(=O)NCCCCCCCCCCCC.Cl [SZ186, octadecyl N-[(1S)-1-(dodecylcarbamoyl)-4-guanidino-butyl]carbamate hydrochloride] | have an adjuvant activity | significant enhancement | significant enhancement | have an adjuvant activity |
| CCCCCCCCCCCCCCCCCCCCCC(=O)NCCCCCNC(=N)N.Cl [SZ176, N-(5-guanidinopentyl)docosanamide] | have an adjuvant activity | tended to increase | significantly increased |  |

Source: patent US20180311342A1, “IMMUNOSTIMULATING AGENT” (AJINOMOTO CO., INC., priority 2017, published 2018)
